Test results reported in the OligoGym collection.
These antisense oligonucleotides have a phosphorothioate backbone; sugars and methylation of C are not fully specified.

target: BIRC5; conditions: ASO
Further: test concentration or dose not given here.

Sequence	remaining target (mRNA or protein) (fraction of control)
TCTTATTGTTGGTTTCCT	≥ 1
GGTCGTCATCTGGCTCCC	0.64
TCCCTCACTTCTCACCTG	0.71
CGATGGCACGGCGCACTT	0.28
ACAGGCAGAAGCACCTCT	≥ 1
CCACGCGAACAAAGCTGT	0.38
TCGCAGTTTCCTCAAATT	0.63
AAAAGGAGTATCTGCCAG	0.61
GACTTAGAATGGCTTTGT	0.63
ATGACAGGGAGGAGGGCG	≥ 1
TCCAGCTCCTTGAAGCAG	0.68
CAAGTCTGGCTCGTTCTC	≥ 1
GCGATTCAAATCTGGCGG	≥ 1
TGTGCTATTCTGTGAATT	0.8
ACTGTGGAAGGCTCTGCC	≥ 1
TCTTGGCTCTTTCTCTGT	0.66
GCCGAGATGACCTCCAGA	0.34

Sequence	remaining target (mRNA or protein) (fraction of control)
TTCTTGAATGTAGAGATG	≥ 1
CTTTCAAGACAAAACAGG	≥ 1
GGTTAATTCTTCAAACTG	≥ 1
AGGACTGTGACAGCCTCA	0.38
GGCTGACAGACACACGGC	0.59
ACAGGAAGGCTGGTGGCA	0.3
CCTCTGCCAACGGGTCCC	0.96
GCTTCTTGACAGAAAGGA	0.65
TGAGAAAGGGCTGCCAGG	0.54
TTTGAAAATGTTGATCTC	0.92
CCGTGTGGAGAACGTGAC	0.78
CTGTCTCCTCATCCACCT	0.59
TACGCCAGACTTCAGCCC	0.99
GGCGCAGCCCTCCAAGAA	0.62
AAGCAGCCACTGTTACCA	0.36
ACAGTTGAAACATCTAAT	≥ 1
ATTCTCTAATCACACACA	0.74

target: GNAI3; conditions: ASO

Sequence	remaining target (mRNA or protein) (fraction of control)
CCATGCTTCTCAATAAAG	0.58
TTAAGAAATCCAAGTGAT	≥ 1
TTAAGGAAGAGAATGATT	≥ 1
CAATAAAGTCCACATTCC	≥ 1
ATTGTTTACATTCATCCT	≥ 1
GACTCCTTCTTCAGCACT	0.48
GGTATCTTTTCTTCTGTT	0.48
CATCTTGCTGAGTTGGAA	0.34
TAAAGAGTGCTAAGATTC	0.72
ATCTCCTTGGTATCTTTT	0.33
AAGTTCCCTAATACAAAA	0.85
AAGGTGTCTGGTCTCAAC	0.56
AAATGTGTTTCTACAATG	0.9
TAATTGCTGTCACTCCCT	0.65
CTTCTCAATAAAGTCCAC	0.65
TAACGGACTCCTCTTTAT	0.25
AGGTCATAATCACTGAGG	0.75
CATGAGACAGCAAAAGGT	0.92
ACAATGCCTGTGGTCTTC	≥ 1
AATGATTGAAGTTTCTGT	0.73
AGCCAGAACAAGGTCATA	0.88
AGAGAATGATTGAAGTTT	0.99
ACACTGTAGTAACTTTCA	0.6
CAATCTTTAGCCGTCCCA	0.49
TGGTCTTCACTCTCGTCC	0.21

target: RELA; conditions: ASO

Sequence	remaining target (mRNA or protein) (fraction of control)
ATGAGGAAGGACAGGCGG	≥ 1
GCACTTGTAGCGGAAGCG	≥ 1
TCTGGAAACTGTGGATGC	≥ 1
GCAGTCCTTTCCTACAAG	0.95
TAGCCATTGATCTTGATG	0.78
GACAGCGTTCCTTCCCCA	≥ 1
TCACACACTGGATTCCCA	0.81
GACGAGCCATTCGCCGGA	0.52
GCACATCAGCTTGCGAAA	≥ 1
GTTGTTGGTCTGGATGCG	0.63
AAAGGAGCCTCGGGCCTC	0.37
GATCTGACTCAGCAGGGC	0.27
CAATGTCCTCTTTCTGCA	0.78
CTCATAGAAGCCATCCCG	0.69
TCACACAGTAGGAAGATC	0.74
GGATGCGCTGACTGATAG	0.31
TGTCCTTTTACGTTTCTC	0.74
GTCTGTGCTGTTGCCAAG	0.87
AGAGCCGCACAGCATTCA	0.46
ACCTGGAAGCAGAGCCGC	0.31

Sequence	remaining target (mRNA or protein) (fraction of control)
CAAAGATGGGATGAGGAA	≥ 1
TCACTAGGCGAGTTATAG	0.53
GCTCAGGGATGACGTAAA	0.45
TTCGGTTCACTCGGCAGA	≥ 1
AGCTGAGCTGCGGGAAGG	0.86
GCCGGTGAGGAGGGTCCT	0.71
TTCTGCACCTTGTCACAC	0.37
TTGGTGGTATCTGTGCTC	0.53
AGGTATGCCCTGGTTCAG	0.61
TGCCCAGAAGGAAACACC	0.66
CTGCCGGGAAGATGAGGG	0.84
CGTAGTCCCCACGCTGCT	0.29
ATGGGTCCCGCACTGTCA	0.38
CCTGGTCCTGTGTAGCCA	0.78
TGTATCTGGCAGGTACTG	≥ 1
CTCAATGATCTCCACATA	≥ 1
ATGCGTCGAGGTGGAGGC	0.6
ATGGAGGAGAAGTCTTCA	≥ 1
CAGGTCCCGCTTCTTCAC	0.33
AGCCTGGTCCCGTGAAAT	0.5

target: CTNNB1; conditions: ASO

Sequence	remaining target (mRNA or protein) (fraction of control)
CCTCTGATAACAATTCGGTT	0.52
AGAAAATCCCTGTTCCCACT	0.32
CTGTCAGAGGAGCTGTGGCT	0.64
TCGCCACACCTTCATTCCTA	0.37
TAGAGTGATTATGAATTAAT	0.7
AGGTCCCAGCGGTACAACGA	0.21
AGTAGCCATTGTCCACGCTG	0.37
GTTGTATGGTATACTTCAAA	0.69
ACCAGGGTGGTGGCCACCCA	0.48
TTCTCTTGAAGCATCGTATC	0.2
GTCCTGAGCAAGTTCACAGA	0.37
AGCTTGAGTAGCCATTGTCC	0.34
CGACCTGCGGTGGCGGCTCG	0.36
AGCAGACACCATCTGAGGAG	0.3
AGGTGCATGATTTGCGGGAC	0.62
AAACTGTGTAGATGGGATCT	0.57
CAAATCAGCTTGAGTAGCCA	0.49
CCCCTCGCTCTCCGCTCCCG	0.07
CATTGTCCACGCTGGATTTT	0.72
CTAAAGGATGATTTACAGGT	0.54

Sequence	remaining target (mRNA or protein) (fraction of control)
GCCATTGTCCACGCTGGATT	≥ 1
AATCAGCTTGAGTAGCCATT	0.31
CTGGTCAGCTCAACTGAAAG	0.41
TGAGTAGCCATTGTCCACGC	0.35
TTGTCCACGCTGGATTTTCA	0.52
CAAAACAAGGTTCCAAATAA	0.56
GCACGAACAAGCAACTGAAC	0.37
TTATTGCAAGTGAGGTTAGA	0.51
ACCAAGCATTTTCACCAGGG	0.4
AGCCCACCAGCTAAACGCAC	0.4
TGTTTTCAATGGGAGAATAA	0.63
TAGCCATTGTCCACGCTGGA	0.23
CCCATAGGAAACTCAGCTTG	0.29
AGGCTAGGGTTTGCTAAATT	0.47
TCAGCTTGAGTAGCCATTGT	0.31
GTACGCACAAGAGCCTCTAT	0.29
TAGCAGTTTTGTCAGTTCAG	≥ 1
CTTGAGTAGCCATTGTCCAC	≥ 1
TTGCTGCCAGTGACTAACAG	0.46
CCTCTCAGCAACTCTACAGG	0.24
